This is an account of results in PubChem BioAssay (NCI).

Among the test systems are A549 NSCLC; CAKI-1 renal; CCRF-CEM leukemia; COLO 205 colon; MDA-MB-231 breast; RXF 393 renal; SK-MEL-2 melanoma; SK-MEL-5 melanoma; SW-620 colon; TK-10 renal.
Common to all, as to test: growth of human tumour cells (NCI), 48 h

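Five concentrations, 48 hours, 96-well plates. Abbreviation: GI50, concentration required for 50% inhibition of growth. TGI: concentration producing complete growth inhibition.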

In the case of `COC(=O)C1C(C(=O)OC)C2(OC(c3ccc(Cl)cc3)=CC2=O)C12OC(c1ccc(Cl)cc1)=CC2=O` (stereo not given), the TGI is above 100 µM in the assay on A549 NSCLC; 59 µM with CAKI-1 renal; 8.23 µM in the assay with CCRF-CEM leukemia; 34.6 µM with COLO 205 colon; 78.6 µM in the assay on MDA-MB-231 breast; 33.2 µM with RXF 393 renal. The TGI was 55.3 µM in the assay on SK-MEL-2 melanoma, 37.9 µM in the assay with SK-MEL-5 melanoma, above 100 µM in the assay on SW-620 colon and 48.5 µM in the assay on TK-10 renal.
Turning to `COc1cc(CC(C)NC(C)=O)cc(OC)c1` (stereo not given), the TGI in the assay on A549 NSCLC, with CAKI-1 renal, in the assay with CCRF-CEM leukemia, in the assay on COLO 205 colon, in the assay with MDA-MB-231 breast and with RXF 393 renal was above 100 µM in each case. Moreover, the TGI with SK-MEL-2 melanoma, in the assay on SK-MEL-5 melanoma, in the assay on SW-620 colon and with TK-10 renal was above 100 µM each time.
Consider `CSC(SC)=C(C(=O)O)P(=O)(O)O`, for which the TGI in the assay on A549 NSCLC, with CAKI-1 renal, with CCRF-CEM leukemia, with COLO 205 colon, in the assay with MDA-MB-231 breast and in the assay with RXF 393 renal was above 100 µM each time. Also, the TGI in the assay on SK-MEL-2 melanoma, in the assay on SK-MEL-5 melanoma, in the assay with SW-620 colon and with TK-10 renal was above 100 µM throughout.
As to `C/C=C(/C)C(=O)OC1CC(C)[C@H]2CC(=O)C(C)=C2CC1C(C)(C)OC(C)=O` (stereo not given in full), the TGI with A549 NSCLC is above 100 µM; with CAKI-1 renal, above 100 µM; in the assay with CCRF-CEM leukemia, 65.8 µM; in the assay with COLO 205 colon, 43.8 µM; with MDA-MB-231 breast it was above 100 µM; in the assay with RXF 393 renal it was 54.6 µM. The TGI in the assay with SK-MEL-2 melanoma is 27 µM; with SK-MEL-5 melanoma it was 29.7 µM; with SW-620 colon it was above 100 µM; in the assay with TK-10 renal, above 100 µM.
As for `O=S(=O)(c1cc(Cl)ccc1Cl)n1ccnc1`, the TGI with A549 NSCLC is above 100 µM; with CAKI-1 renal, above 100 µM; in the assay with CCRF-CEM leukemia, above 100 µM; with COLO 205 colon it was 34.1 µM; in the assay on MDA-MB-231 breast, 51.2 µM; with RXF 393 renal it was 74.1 µM. For the same molecule, the TGI was above 100 µM in the assay with SK-MEL-2 melanoma, 53.9 µM in the assay on SK-MEL-5 melanoma, above 100 µM with SW-620 colon and above 100 µM in the assay with TK-10 renal.
As for `COc1ccc(Nc2nc(N)c(C(=O)c3c[nH]c4ccccc34)s2)cc1`, the TGI was above 61.3 µM with A549 NSCLC; above 100 µM in the assay with CAKI-1 renal; 6.02 µM with CCRF-CEM leukemia; 4.06 µM with COLO 205 colon; above 100 µM with MDA-MB-231 breast; 11.4 µM in the assay on RXF 393 renal. The TGI with SK-MEL-2 melanoma is above 72.5 µM; in the assay on SK-MEL-5 melanoma it was 14.4 µM; with SW-620 colon, above 100 µM; in the assay on TK-10 renal it was above 30.7 µM.
Consider `Cc1cc(C)c(S(=O)(=O)N(CCCN)OCCCON(CCCN)S(=O)(=O)c2c(C)cc(C)cc2C)c(C)c1`, for which the TGI turned out to be 3.3 µM in the assay on A549 NSCLC; 29.3 µM in the assay with CAKI-1 renal; 16.8 µM in the assay with CCRF-CEM leukemia; 3.5 µM in the assay with COLO 205 colon; 3.31 µM in the assay with MDA-MB-231 breast; 15.7 µM with RXF 393 renal. In addition, the TGI in the assay on SK-MEL-2 melanoma is 3.29 µM; with SK-MEL-5 melanoma, above 42.8 µM; in the assay on SW-620 colon, 6.45 µM; with TK-10 renal it was 16.5 µM.
Consider `C=C1C(OC2O[C@@H]3O[C@@]4(C)CC[C@H]5[C@H](C)CC[C@@H](C2=C)[C@@]35O4)O[C@@H]2O[C@@]3(C)CC[C@H]4[C@H](C)CC[C@@H]1[C@@]24O3` (stereo not given in full), for which the TGI in the assay with A549 NSCLC, in the assay on CAKI-1 renal, in the assay with CCRF-CEM leukemia, in the assay with COLO 205 colon, with MDA-MB-231 breast and with RXF 393 renal was above 50 µM throughout. In addition, the TGI in the assay on SK-MEL-2 melanoma, in the assay with SK-MEL-5 melanoma, with SW-620 colon and in the assay with TK-10 renal was above 50 µM in each case.
For `O=C1C=CC(=O)c2c(O)c(N3CCC[C@H]3CO)c(Cl)c(O)c21`, the TGI in the assay with A549 NSCLC was above 10 µM; in the assay on CAKI-1 renal it was 3.57 µM; in the assay on CCRF-CEM leukemia, 0.757 µM; with COLO 205 colon it was 3.22 µM; with MDA-MB-231 breast it was 6.48 µM; with RXF 393 renal it was 3.46 µM. The TGI with SK-MEL-2 melanoma was determined as 5.53 µM; in the assay on SK-MEL-5 melanoma it was 3.11 µM; in the assay with SW-620 colon, 3.51 µM; with TK-10 renal, 5.57 µM.
In the case of `NC(=O)c1csc(C2(O)COC(CO)C2O)n1` (stereo not given), the TGI with A549 NSCLC, in the assay with CAKI-1 renal, in the assay with CCRF-CEM leukemia, with COLO 205 colon, in the assay with MDA-MB-231 breast and with RXF 393 renal was above 100 µM throughout. The TGI with SK-MEL-2 melanoma, in the assay on SK-MEL-5 melanoma, in the assay on SW-620 colon and with TK-10 renal was above 100 µM each time.
Regarding `CC[C@H](Nc1nc(C)nc(N)c1C#N)c1nc2cccc(NCc3ccc(C(=O)NO)cc3)c2c(=O)n1-c1ccccc1`, the GI50 is 1.92 µM with A549 NSCLC; 1.76 µM with CAKI-1 renal; 0.551 µM in the assay on CCRF-CEM leukemia; 1.74 µM in the assay on COLO 205 colon; 1.4 µM in the assay on MDA-MB-231 breast; 0.866 µM in the assay on RXF 393 renal. In addition, the GI50 was 2.07 µM in the assay on SK-MEL-2 melanoma, 1.84 µM with SK-MEL-5 melanoma, 1.74 µM in the assay on SW-620 colon and 2.43 µM with TK-10 renal. Besides, the TGI in the assay with A549 NSCLC came out at 4.2 µM; in the assay on CAKI-1 renal it was 3.68 µM; in the assay with CCRF-CEM leukemia, 9.21 µM; with COLO 205 colon, 3.8 µM; in the assay with MDA-MB-231 breast, 3.36 µM; with RXF 393 renal, 2.18 µM. For the same molecule, the TGI turned out to be 5.51 µM in the assay on SK-MEL-2 melanoma, 3.47 µM in the assay with SK-MEL-5 melanoma, 4.47 µM in the assay with SW-620 colon and 7.86 µM with TK-10 renal.
Take `COC(=O)Cc1ccc2c(cnn2-c2ccccc2)c1OC`: the TGI with A549 NSCLC, in the assay on CAKI-1 renal, with CCRF-CEM leukemia, in the assay on COLO 205 colon, with MDA-MB-231 breast and in the assay with RXF 393 renal was above 10 µM throughout. The TGI in the assay with SK-MEL-2 melanoma, in the assay with SK-MEL-5 melanoma, with SW-620 colon and in the assay on TK-10 renal was above 10 µM each time.
In the case of `O=C1NC2CCCCC2N=C1CC(=O)c1ccc(Br)cc1` (stereo not given), the TGI in the assay with A549 NSCLC was above 100 µM; with CAKI-1 renal, above 100 µM; in the assay with CCRF-CEM leukemia, above 100 µM; with COLO 205 colon, above 100 µM; in the assay with MDA-MB-231 breast it was 35.7 µM; in the assay with RXF 393 renal, above 100 µM. The TGI with SK-MEL-2 melanoma, in the assay on SK-MEL-5 melanoma, in the assay with SW-620 colon and with TK-10 renal was above 100 µM in each case.
As to `O=C(/C=C/C(=O)N1CCCC1)N1CCCC1`, the TGI in the assay with A549 NSCLC, with CAKI-1 renal, in the assay with CCRF-CEM leukemia, in the assay with COLO 205 colon, with MDA-MB-231 breast and in the assay with RXF 393 renal was above 100 µM in each case. For the same molecule, the TGI in the assay on SK-MEL-2 melanoma, in the assay with SK-MEL-5 melanoma, in the assay with SW-620 colon and in the assay with TK-10 renal was above 100 µM each time.
On to `Cc1c(CN2CCN(C)CC2)c(CN2CCN(C)CC2)c(C)n1-c1ccc(Cl)cc1`, for which the TGI in the assay with A549 NSCLC is 91.1 µM; in the assay on CAKI-1 renal, 59.9 µM; in the assay on CCRF-CEM leukemia, 46.8 µM; in the assay on COLO 205 colon it was 55.5 µM; in the assay with MDA-MB-231 breast, above 100 µM; in the assay on RXF 393 renal, above 100 µM. Further, the TGI with SK-MEL-2 melanoma is 46.2 µM; in the assay with SK-MEL-5 melanoma, 31.7 µM; in the assay on SW-620 colon, above 100 µM; in the assay on TK-10 renal, 47.8 µM.
In the case of `CCn1c2ccc(C(=O)CCCN3CCCCC3)cc2c2cc(C(=O)CCCN3CCCCC3)ccc21`, the TGI with A549 NSCLC was 3.86 µM; in the assay with CAKI-1 renal it was 8.54 µM; in the assay on CCRF-CEM leukemia, 9.83 µM; in the assay on COLO 205 colon it was 15.7 µM; with MDA-MB-231 breast it was 4.74 µM; with RXF 393 renal, 7.31 µM. The TGI in the assay on SK-MEL-2 melanoma was 3.52 µM; in the assay with SK-MEL-5 melanoma it was 2.92 µM; with SW-620 colon, 3.9 µM; in the assay on TK-10 renal it was 15.9 µM.
Take `CCC(O)(Cc1ccc(OC)cc1)c1ccc(OC)cc1` (stereo not given): the TGI in the assay on A549 NSCLC, in the assay with CAKI-1 renal, in the assay with CCRF-CEM leukemia, in the assay on COLO 205 colon, in the assay on MDA-MB-231 breast and with RXF 393 renal was above 100 µM throughout. In addition, the TGI with SK-MEL-2 melanoma, in the assay on SK-MEL-5 melanoma, with SW-620 colon and with TK-10 renal was above 100 µM each time.
In the case of `O=c1[nH]c2nc3ccccc3nc2[nH]c1=O`, the TGI in the assay with A549 NSCLC, in the assay on CAKI-1 renal, with CCRF-CEM leukemia, in the assay with COLO 205 colon, in the assay on MDA-MB-231 breast and in the assay on RXF 393 renal was above 100 µM throughout. The TGI in the assay on SK-MEL-2 melanoma, in the assay on SK-MEL-5 melanoma, in the assay on SW-620 colon and in the assay on TK-10 renal was above 100 µM throughout.
With `COc1ccc2nc(/C(N)=C\C#N)ccc2c1`, the TGI in the assay on A549 NSCLC, in the assay on CAKI-1 renal, with CCRF-CEM leukemia, with COLO 205 colon, in the assay with MDA-MB-231 breast and with RXF 393 renal was above 100 µM throughout. The TGI with SK-MEL-2 melanoma, with SK-MEL-5 melanoma, in the assay with SW-620 colon and in the assay on TK-10 renal was above 100 µM each time.
For the molecule `Cc1cc2ncn(C3CCCCO3)c2cc1C` (stereo not given), the TGI with A549 NSCLC, in the assay on CAKI-1 renal, in the assay with CCRF-CEM leukemia, with COLO 205 colon, with MDA-MB-231 breast and in the assay on RXF 393 renal was above 100 µM throughout. Moreover, the TGI in the assay on SK-MEL-2 melanoma, with SK-MEL-5 melanoma, in the assay on SW-620 colon and with TK-10 renal was above 100 µM each time.
For the molecule `O=c1c(Cc2ccc(Cl)cc2)nnc2sc(-c3ccc(-c4ccc(F)c(Cl)c4)o3)nn12`, the TGI in the assay with A549 NSCLC, with CAKI-1 renal, in the assay on CCRF-CEM leukemia, in the assay with COLO 205 colon, in the assay on MDA-MB-231 breast and with RXF 393 renal was above 100 µM each time. In addition, the TGI with SK-MEL-2 melanoma, with SK-MEL-5 melanoma, in the assay with SW-620 colon and in the assay with TK-10 renal was above 100 µM each time.
